{
  "source": "patent US20220378763A1",
  "about": "“COMPOUND FOR TREATMENT OF ACUTE INFLAMMATION IN THE MYOCARDIUM” (CALPROTECT AB, priority 2019, published 2022)",
  "key": {"[1]": {"tested_on": "C57BL/6 mice with sepsis induced by bacterial lipopolysaccharide", "test": "LPS-induced sepsis: mortality over 7 days", "assay_type": "in vivo, mouse", "conditions": "30 mg/kg i.p. at 0 and 6 h after LPS; 7-day period", "procedure": "General animal care, induction of sepsis and treatments were performed as described under Example 7. We initially included a total of 10 mice per treatment group, pooled from two independent experiments. To assess mortality after induction of sepsis, the mice were monitored at least three times a day for 7 days. […] The final group size was n=9 mice in the ABR-238901-treated group, and n=10 in the PBS-treated group. The experimental layout is outlined in FIG. 14A. Mice showing clinical signs of terminal illness that fulfilled the pre-specified termination points specified in the ethical permit awarded by the Lund University Ethics Committee were euthanized. Weight loss more than 20% is not considered a clinical sign of terminal illness, but was defined by the Ethical Committee as an experiment termination criterion."}, "[2]": {"tested_on": "C57BL/6 mice with sepsis induced by bacterial lipopolysaccharide", "test": "LPS-induced sepsis: plasma cytokines by multiplex assay", "assay_type": "in vivo, mouse", "conditions": "24 h after sepsis induction, vs PBS", "procedure": "General animal care, induction of sepsis and treatments were performed as described under Example 7. We included 5 mice per treatment group. The mice were sacrificed 24 h after sepsis induction and blood was drawn using cardiac puncture with an EDTA 0.5M coated syringe. Blood was spun down at 3000 rpm for 10 minutes and plasma was collected.\nCytokine measurements were performed using the Cytokine & Chemokine 36-Plex Mouse procartaPlex™ P1A (ThermoFischer Scientific) as per manufacturer's instructions. Data are presented as mean±SD."}, "[3]": {"target": "T1, S100A9 binding to RAGE (Homo sapiens, UniProt P06702)", "T1 sequence (P06702 1-114)": "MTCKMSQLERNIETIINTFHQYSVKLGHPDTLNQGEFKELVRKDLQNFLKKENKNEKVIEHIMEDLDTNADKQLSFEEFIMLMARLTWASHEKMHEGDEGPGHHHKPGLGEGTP", "test": "Surface plasmon resonance (Biacore 3000): inhibition of S100A9 binding to immobilized RAGE", "conditions": "50 nM recombinant human S100A9 over immobilized RAGE; response at late dissociation phase", "source_text": "(a) The molecular structure of ABR-238901. (b-c) Surface plasmon resonance measurement of S100A9 binding to immobilized RAGE (b) and TLR4 (c) in the presence of increasing ABR-238901 concentrations. The magnitude of the response for each ABR-238901 concentration (BABR-238901), measured at the late dissociation phase (t 350s), was expressed as percentage of the response in the absence of competitor (BO), and plotted against the concentration of ABR-238901.\nInhibition of S100A9 binding to RAGE and TLR4/MD2 by ABR-238901 was tested by surface plasmon resonance in a Biacore 3000 system (GE Healthcare, Uppsala, Sweden). Briefly, 50 nM of recombinant human S100A9 was injected over immobilized RAGE and TLR4 (2 min at 30 μL/min) in the presence of increasing concentrations of ABR-238901, ranging from 0.0488 to 100 μM. The magnitude of the responses measured at the late dissociation phase (t 350 s) in the presence of ABR-238901 (BABR-238901) were expressed as percentage of response in the absence of competitor (Bo), and plotted against the concentration of ABR-238901 (FIG. 7b-c). The curves were fit to a sigmoidal dose-response model with variable slope in Prism GraphPad for calculation of IC50."}, "[4]": {"tested_on": "C57BL/6 mice with MI induced by permanent coronary artery ligation", "test": "S100A8/A9 in plasma (ELISA) and myocardium (immunohistochemistry) 3 days post-MI", "assay_type": "in vivo, mouse", "procedure": "Subsequently the hearts were fixed in 4% (w/v) paraformaldehyde and embedded in paraffin. The hearts were sectioned transversely from the apex to the level of the suture, and 6 μm thick sections were collected at 390 μm intervals. The sections were mounted on glass slides and stained with Van Gieson or Masson trichrome stain for quantitative analysis of scar size. Alarmin S100A8/A9 was detected using mouse anti-S100A8/A9 IgG1 antibody (Abcam, ab 130234, 1:100 dilution, O/N 4° C.). Goat anti-mouse IgG1 HRP-conjugated secondary antibody (Abcam, ab 97240, 1 h RT) was used and the staining was developed with ImmPACT™ DAB (Vector, SK-4105) chromogen as substrate. The slides were subsequently scanned using an Aperio digital pathology slide scanner (Leica Biosystems), and images were captured with the ImageScope software (Leica Biosystems). Left ventricle area and the infarcted area were measured on each section by using the BioPix iQ 2.5.0 software (Biopix AB). The size of the post-MI myocardial scar was expressed as percentage of the left ventricle volume below the coronary ligature.\nPlasma levels of S100A8/A9 heterodimer was measured by DuoSet®ELISA (R&D Systems, DY8596-05), according to manufacturer instructions. All the samples were diluted 1:100 prior to analysis. Biotinylated goat anti-mouse S100A8/A9 antibody was used as […] antibody and streptavidin-HRP was used for detection. […]"}},
  "data": [
    {"molecule": "COc1ncc(S(=O)(=O)Nc2cncc(Cl)c2O)cc1Br", "note": "[ABR-238901, 5-bromo-N-(5-chloro-4-hydroxypyridin-3-yl)-6-methoxypyridine-3-sulfonamide]", "values": [
      {"measurement": "Animal survival", "setting": "[1]", "result": 100, "unit": "%"},
      {"measurement": "Plasma level of GM-CSF", "setting": "[2]", "result": "decreased"},
      {"measurement": "Plasma level of IFN-γ", "setting": "[2]", "result": "decreased"},
      {"measurement": "Plasma level of IL17-A", "setting": "[2]", "result": "decreased"},
      {"measurement": "Plasma level of IL-1b", "setting": "[2]", "result": "decreased"},
      {"measurement": "Plasma level of IL-6", "setting": "[2]", "result": "decreased"},
      {"measurement": "Plasma level of IL-22", "setting": "[2]", "result": "decreased"},
      {"measurement": "Plasma level of LIF", "setting": "[2]", "result": "decreased"},
      {"measurement": "Plasma level of LIX", "setting": "[2]", "result": "decreased"},
      {"measurement": "Plasma level of MCP-1", "setting": "[2]", "result": "decreased"},
      {"measurement": "IC50", "setting": "[3]", "result": 2700, "unit": "nM"},
      {"measurement": "Plasma levels of S100A8/A9", "setting": "[4]; ELISA", "result": "reduced"},
      {"measurement": "S100A8/A9 presence in the infarcted myocardium", "setting": "[4]; immunohistochemical staining", "result": "reduced"}
    ]}
  ]
}
